Reference: the supplement of paper PMC11208160

assay: recombinant UMI read abundance after kanamycin selection (control-corrected) (log10(CPM+1)); higher = more efficient recombination; extreme values may be limits of the assay; sequences stand for … in AGTGCAGAGAAAATCGGCCAGTTTTCTCTGCCTGCAGTCCGCATGCCGTGGGACCCCTTGGGTTCTAACCTGTTGCCTAGATTTATGCAGCGGACTGCCTTTCTCCCAAAGTGATAAACCGG…AGGTTGGTTTCACT; site = the 11-nt donor
How it was run: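 After plating on IPTG (0.07 mM) plus kanamycin, or unselected, in two replicates, recombinant UMIs were PCR-amplified across the donor–target junction and sequenced. The cells were Escherichia coli co-electroporated with a UMI-tagged donor and donor-binding-loop pair library and a target plasmid with a fixed target and T7-inducible IS621 bridge recombinase. Values are log10(CPM+1), with CPM averaged over replicates and scaled by control-derived factors.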
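Further: IS621 bridge recombinase in Escherichia coli cells against a fixed T5 target plasmid.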

Sequence	recombinant UMI read abundance (log10)
CTTGTACCATGGACCGGTTTTCCCGGTAATCCGTATTTGAC (site CTAGTATCTGT)	0
CTTGTACCATGGACCGGTTTTCCCGGTAATCCGTATTTGAC (site CTTGTACCTGT)	0
CTTGTGGCATGGACCGGTTTTCCCGGTAATCCGTATTTGGG (site CTTGTGGCTCC)	0.00701
CTTGTTGCATGGACCGGTTTTCCCGGTAATCCGTATTTGGT (site CTTGTTGCTAC)	1.26
CTTTCGCCATGGACCGGTTTTCCCGGTAATCCGTATTTGCT (site CTTTCGCCTAG)	0.0294
CTTTCTCCATGGACCGGTTTTCCCGGTAATCCGTATTTGCT (site CTTTCTCCTAG)	1.82
CTTTGCCCATGGACCGGTTTTCCCGGTAATCCGTATTTGAG (site CTTTGCCCTCT)	0.0229
CTTTGGGCATGGACCGGTTTTCCCGGTAATCCGTATTTGTC (site CTTTGGGCTGA)	0
CTTTTGGCATGGACCGGTTTTCCCGGTAATCCGTATTTGCT (site CATTTGGCTAG)	0
CTTTTGGCATGGACCGGTTTTCCCGGTAATCCGTATTTGCT (site CCTTTGGCTAG)	0
CTTTTGGCATGGACCGGTTTTCCCGGTAATCCGTATTTGCT (site CGTTTGGCTAG)	0.00381
CTTTTGGCATGGACCGGTTTTCCCGGTAATCCGTATTTGCT (site CTTTTGGCTAG)	0
GAAAACGCATGGACCGGTTTTCCCGGTAATCCGTATTTGAA (site GAAAACGCTTT)	2.16
GAAAAGTCATGGACCGGTTTTCCCGGTAATCCGTATTTGAA (site GAAAAGTCTTT)	2.84
GAAAATTCATGGACCGGTTTTCCCGGTAATCCGTATTTGTT (site GAAAATTCTAA)	0.97
GAAAATTCATGGACCGGTTTTCCCGGTAATCCGTATTTGTT (site GAACATTCTAA)	0
GAAAATTCATGGACCGGTTTTCCCGGTAATCCGTATTTGTT (site GAAGATTCTAA)	0.507
GAAAATTCATGGACCGGTTTTCCCGGTAATCCGTATTTGTT (site GAATATTCTAA)	1.79
GAAACACCATGGACCGGTTTTCCCGGTAATCCGTATTTGTT (site GAAACACCTAA)	0.0036
GAAACCTCATGGACCGGTTTTCCCGGTAATCCGTATTTGTG (site GAAACCTCTCA)	0.406
GAAACGTCATGGACCGGTTTTCCCGGTAATCCGTATTTGGC (site GAAACGTCTGC)	2.01
GAAAGCTCATGGACCGGTTTTCCCGGTAATCCGTATTTGCG (site GAAAGCTCTCG)	2.77
GAAAGGCCATGGACCGGTTTTCCCGGTAATCCGTATTTGCA (site GAAAGGCCTTG)	0
GAAAGGCCATGGACCGGTTTTCCCGGTAATCCGTATTTGCA (site GAACGGCCTTG)	0
GAAAGGCCATGGACCGGTTTTCCCGGTAATCCGTATTTGCA (site GAAGGGCCTTG)	0

Sequence	recombinant UMI read abundance (log10)
GAAAGGCCATGGACCGGTTTTCCCGGTAATCCGTATTTGCA (site GAATGGCCTTG)	0
GAAAGTCCATGGACCGGTTTTCCCGGTAATCCGTATTTGTA (site AAAAGTCCTTA)	0
GAAAGTCCATGGACCGGTTTTCCCGGTAATCCGTATTTGTA (site CAAAGTCCTTA)	0.821
GAAAGTCCATGGACCGGTTTTCCCGGTAATCCGTATTTGTA (site GAAAGTCCTTA)	0.0817
GAAAGTCCATGGACCGGTTTTCCCGGTAATCCGTATTTGTA (site TAAAGTCCTTA)	1.01
GAACGGACATGGACCGGTTTTCCCGGTAATCCGTATTTGAA (site GAACGGACTTT)	0.965
GAACTATCATGGACCGGTTTTCCCGGTAATCCGTATTTGCC (site GAACTATCTGG)	1.78
GAACTCACATGGACCGGTTTTCCCGGTAATCCGTATTTGAT (site GAACTCACTAT)	2.08
GAACTCACATGGACCGGTTTTCCCGGTAATCCGTATTTGAT (site GACCTCACTAT)	0.375
GAACTCACATGGACCGGTTTTCCCGGTAATCCGTATTTGAT (site GAGCTCACTAT)	0
GAACTCACATGGACCGGTTTTCCCGGTAATCCGTATTTGAT (site GATCTCACTAT)	0.263
GAAGAAGCATGGACCGGTTTTCCCGGTAATCCGTATTTGAG (site GAAGAAGCTCT)	2.53
GAAGAATCATGGACCGGTTTTCCCGGTAATCCGTATTTGTT (site GAAGAATCTAA)	3.34
GAAGAATCATGGACCGGTTTTCCCGGTAATCCGTATTTGTT (site GAAGACTCTAA)	1.41
GAAGAATCATGGACCGGTTTTCCCGGTAATCCGTATTTGTT (site GAAGAGTCTAA)	1.59
GAAGAATCATGGACCGGTTTTCCCGGTAATCCGTATTTGTT (site GAAGATTCTAA)	0
GAAGACCCATGGACCGGTTTTCCCGGTAATCCGTATTTGCG (site GAAGACCCTCG)	0.691
GAAGAGGCATGGACCGGTTTTCCCGGTAATCCGTATTTGTA (site GAAGAGGCTTA)	1.64
GAAGATCCATGGACCGGTTTTCCCGGTAATCCGTATTTGTT (site GAAGATACTAA)	0.0059
GAAGATCCATGGACCGGTTTTCCCGGTAATCCGTATTTGTT (site GAAGATCCTAA)	1.25
GAAGATCCATGGACCGGTTTTCCCGGTAATCCGTATTTGTT (site GAAGATGCTAA)	0.00882
GAAGATCCATGGACCGGTTTTCCCGGTAATCCGTATTTGTT (site GAAGATTCTAA)	0.0204
GAAGATTCATGGACCGGTTTTCCCGGTAATCCGTATTTGAT (site GAAGATTCTAA)	0.773
GAAGATTCATGGACCGGTTTTCCCGGTAATCCGTATTTGAT (site GAAGATTCTAC)	0.00538
GAAGATTCATGGACCGGTTTTCCCGGTAATCCGTATTTGAT (site GAAGATTCTAG)	0

Sequence	recombinant UMI read abundance (log10)
GAAGATTCATGGACCGGTTTTCCCGGTAATCCGTATTTGAT (site GAAGATTCTAT)	2.48
GAAGATTCATGGACCGGTTTTCCCGGTAATCCGTATTTGTG (site GAAGATTCTAA)	1.55
GAAGATTCATGGACCGGTTTTCCCGGTAATCCGTATTTGTG (site GAAGATTCTCA)	2.81
GAAGATTCATGGACCGGTTTTCCCGGTAATCCGTATTTGTG (site GAAGATTCTGA)	0
GAAGATTCATGGACCGGTTTTCCCGGTAATCCGTATTTGTG (site GAAGATTCTTA)	1.24
GAAGGACCATGGACCGGTTTTCCCGGTAATCCGTATTTGCG (site GAAGGACCTCG)	0
GAAGGGACATGGACCGGTTTTCCCGGTAATCCGTATTTGCA (site GAAGGGACTTG)	2.41
GAAGGTGCATGGACCGGTTTTCCCGGTAATCCGTATTTGAA (site GAAGGTGCTTT)	2.08
GAAGTCTCATGGACCGGTTTTCCCGGTAATCCGTATTTGGT (site GAAGTCTCTAC)	2.53
GAATACACATGGACCGGTTTTCCCGGTAATCCGTATTTGCG (site GAATACACTCG)	2.66
GAATACTCATGGACCGGTTTTCCCGGTAATCCGTATTTGGA (site GAATACTCTTC)	2.53
GAATAGACATGGACCGGTTTTCCCGGTAATCCGTATTTGCC (site GAATAGACTGG)	2.33
GAATAGACATGGACCGGTTTTCCCGGTAATCCGTATTTGCC (site GCATAGACTGG)	1.73
GAATAGACATGGACCGGTTTTCCCGGTAATCCGTATTTGCC (site GGATAGACTGG)	1.44
GAATAGACATGGACCGGTTTTCCCGGTAATCCGTATTTGCC (site GTATAGACTGG)	2.39
GAATAGTCATGGACCGGTTTTCCCGGTAATCCGTATTTGGG (site GAATAGTCTCC)	1.13
GAATGAACATGGACCGGTTTTCCCGGTAATCCGTATTTGGT (site GAATGAACTAC)	1.55
GAATGGCCATGGACCGGTTTTCCCGGTAATCCGTATTTGCT (site GAATGGCCTAG)	0.0235
GAATGGCCATGGACCGGTTTTCCCGGTAATCCGTATTTGCT (site GAATGGCCTCG)	0.0255
GAATGGCCATGGACCGGTTTTCCCGGTAATCCGTATTTGCT (site GAATGGCCTGG)	0
GAATGGCCATGGACCGGTTTTCCCGGTAATCCGTATTTGCT (site GAATGGCCTTG)	0
GAATTCGCATGGACCGGTTTTCCCGGTAATCCGTATTTGCT (site GAATTCGCTAG)	2.87
GACAAAACATGGACCGGTTTTCCCGGTAATCCGTATTTGCG (site GACAAAACTCG)	1.5
GACAAAACATGGACCGGTTTTCCCGGTAATCCGTATTTGGC (site GACAAAACTGC)	0
GACAAACCATGGACCGGTTTTCCCGGTAATCCGTATTTGGG (site GACAAACCTAC)	0.0248
